“Also recorded” adds a separate entry of the source.
Assays:
[1] = system: RGCs; experiment: Inhibition of TSP-, astrocyte/ACM- or Hevin-induced synapse formation in RGC cultures; type: cell-based, rat
Description: RGCs were purified by sequential immunopanning to greater than 99.5% purity from P5 Sprague-Dawley rats (Simonsen Labs, Gilroy, Calif.), as previously described (Barres et. al. (1988) Neuron 9, 791). Approximately 30,000 RGCs were cultured per well in 24-well plates (Falcon) on glass (Assistant) or Aclar 22C (Allied Signal) coverslips coated with poly-D-lysine (10 μg/ml) followed by laminin (2 μg/ml). RGCs were cultured in 600 μl of serum-free medium, modified from Bottenstein and Sato (1979), containing Neurobasal (Gibco), bovine serum albumin, selenium, putrescine, triiodo-thyronine, transferrin, progesterone, pyruvate (1 mM), glutamine (2 mM), CNTF (10 ng/ml), BDNF (50 ng/ml), insulin (5 μg/ml), and forskolin (10 μM). Recombinant human BDNF and CNTF were generously provided by Regeneron Pharmaceuticals.
Purified human platelet TSP1 was from either Sigma or Haematologic Technologies with similar results. Recombinant TSP2 was purified from serum-free medium conditioned by baculovirus-infected insect cells expressing mouse TSP2. Since purified TSP1 is readily available, we used this as the source of TSP in our experiments unless otherwise stated TSPs were used at a concentration of 5 μg/ml unless otherwise specified. RCGs were cultured for 4 days to allow robust process outgrowth and then cultured with TSPs for an additional 6 days. All other reagents were obtained from Sigma.
For preparation of ACM, confluent cultures of astrocytes in 10 cm dishes were washed 3× in PBS and fed with 10 mls RGC medium (without CNTF, BDNF or forskolin). ACM was harvested after 4-6 days of conditioning, filtered through a 0.2 μm syringe filter and concentrated 10× through a 5 KD molecular weight cut-off centrifuge concentrator (Millipore), unless otherwise indicated. ACM was used at a final concentration of 5× unless otherwise indicated. RCGs were cultured for 4 days to allow robust process outgrowth and then cultured with ACM or an astrocyte-feeding layer for an additional 6 days.
For synapse quantification, cultures were fixed for 7 min in 4% paraformaldehyde (PFA), washed 3× in phosphate buffered saline (PBS) and blocked in 100 μL of blocking buffer (50% Antibody Buffer (0.5% bovine serum albumin, 0.5% Triton X-100, 30 mM NaPO4, 750 mM NaCl, 5% normal goat serum, and 0.4% NaN3, pH 7.4), 50% goat serum (NGS), 0.1% Triton-X) for 30 min. After blocking, cover slips were washed 3× in PBS and 100 μL of primary antibody solution was added to each cover slip, consisting of rabbit anti-synaptotagmin (cytosolic domain, Synaptic Systems) and mouse anti-PSD-95 (6G6-1C9 clone, Affinity Bio Reagents) diluted 1:500 in antibody buffer. Coverslips were incubated overnight at 4° C., washed 3× in PBS, and incubated with 100 μL of secondary antibody solution containing Alexa-594 conjugated goat anti-rabbit and Alexa-488 conjugated goat anti-mouse (Molecular Probes) diluted 1:1000 in antibody buffer. Following incubation for 2 h at room temperature, coverslips were washed five times in PBS and mounted in Vectashield mounting medium with DAPI (Vector Laboratories Inc) on glass slides (VWR Scientific). For presynaptic activity assay, rabbit synaptotagmin antiserum was generated by immunization with a peptide corresponding to the N-terminal luminal portion of synaptotagmin. This serum was added at 1:500 to live cultures and incubated for 6 hours. Cells were then washed 3× in DPSB, fixed and stained as above, except for the omission of synaptotagmin antibody from the primary antibody solution.
Mounted coverslips were imaged using Nikon Diaphot and Eclipse epifluorescence microscopes (Nikon). Healthy cells that were at least 2 cell diameters from their nearest neighbor were identified and selected at random by eye using DAPI fluorescence. 8-bit digital images of the fluorescence emission at both 594 nm and 488 nm were recorded for each selected cell using a cooled monochrome CCD camera and SPOT image capture software (Diagnostic Instruments, Inc). […]

[2] = system: naive rats; experiment: TSP4-induced behavioral hypersensitivity in naive rats (paw withdrawal threshold, von Frey); type: in vivo, rat; conditions: 1 mg/rat bolus i.t., three days after TSP4 (45 ug/rat)

Structure (SMILES): NCC1(CC(=O)O)CCCCC1 [Gabapentin, 1-(aminomethyl)cyclohexaneacetic acid]
- effect on SD2-induced synapse formation [1]: completely inhibited synapse formation; also recorded: inhibited TSP induced synapse formation; also recorded: blocks TSPs synaptogenic effect; also recorded: blocks the synaptogenic activity of SD2
- effect on SD2-induced synapses [1]: synapse formation was not affected; also recorded: does not decrease synapse numbers
- effect on already formed synapses (synapse number) [1]: did not decreased the synapse number
- effect on synapse formation induced by Hevin [1]: does not inhibit the synapse formation; also recorded: did not affect
- effect on synaptogenic effect of TSP2 EGF-like domains [1]: diminished its synaptogenic effect
- effect on TSP and astrocyte-induced synapse formation ([1]; 32 μM): strongly inhibited both TSP and astrocyte-induced synapse formation
- effect on synapse formation induced by TSP1 or TSP2 EGF-like domains ([1]; 32 μM): blocked the synaptogenic effect; also recorded: reduces the number of synapses formed by RGCs down to background levels
- effect on synaptogenic effect of astrocyte conditioned media (ACM) ([1]; 32 μM): diminished the synaptogenic effect of both rat and mouse ACM; also recorded: able to block all of ACMs synaptogenic activity
- effect on TSP4-induced behavioral hypersensitivity [2]: blocked the pain-inducing effects of TSP4

Reference: US8491897B2, “Treatment of neuropathic pain using anti-thrombospondin antibodies” (The Board of Trustees of the Leland Stanford Junior …, priority 2007, dated 2013)
